We go through 18 compounds from ChEMBL document CHEMBL6127051, “Hydrazinecarboxamides: Comprehensive review of their anticancer, anticonvulsive, anti-inflammatory, enzyme inhibition, antioxidant and other activities” (Eur J Med Chem, 2024).

Converted amounts (≈) assume the structure as drawn.

For one series, the system named is AR-42J cell line. Kind of series: Antiproliferative activity against AR42J cells assessed as reduction in cell viability incubated for 24 hrs by MTT colorimetric assay. Type of series: functional, cell-based. To be noted: Rattus norvegicus. For orientation: Formazan colour is commonly taken as a measure of viable cells.
Series [1] can be described thus: Inhibition of alpha amylase (unknown origin). Details: species or system Homo sapiens.
In another series the test system is PANC-1. The experiment in a line: Induction of apoptosis in human PANC-1 cells assessed as apoptotic cells at 2 uM incubated for 24 hrs by flow cytometric analysis relative to control. In kind it is functional. (In general: A flow cytometer gives signals particle by particle.)
Series [2] in a line: Antiproliferative activity against human MRC5 cells assessed as reduction in cell growth. Type of series: toxicity, cell-based.
A short description of series [3]: Antiplatelet activity in human platelets assessed as inhibition of collagen-induced platelet aggregation at 20 uM relative to control. Type of series: functional. Further details: scale not given: the % may be the effect or the level left.
Series [4] in a line: Antiplatelet activity in human platelets assessed as inhibition of collagen-induced platelet aggregation at 10 uM relative to control. Type of series: functional. Further details: scale not given: the % may be the effect or the level left.
For another series, the target named is Alpha glucosidase (Homo sapiens, UniProt O43451+P10253+P14410+Q2M2H8). The experiment in a line: Inhibition of Alpha glucosidase (unknown origin). In kind it is protein assay.
The next series deals with P388. Kind of series: Cytotoxicity against mouse P388 cells assessed as reduction in cell viability. Type of series: functional, cell-based.
The next series deals with DNA topoisomerase 1 (Homo sapiens, UniProt P11387). Kind of series: Inhibition of DNA topoisomerase I (unknown origin).
For a further series, the system named is MKN-45. The experiment in a line: Antiproliferative activity against human MKN-45 cells assessed as inhibition of cell growth by MTT assay. Type of series: functional, cell-based.
Series [5] concerns HepG2. The experiment in a line: Antiproliferative activity against human HepG2 cells assessed as reduction in cell viability incubated for 72 hrs by MTT assay. Type of series: functional, cell-based. The note with it: HepG2, 72 h.
For series [6], the system named is PC-3. Kind of series: Antiproliferative activity against human PC-3 cells assessed as inhibition of cell growth at 10 uM relative to control. In kind it is functional. Further details: scale not given: the % may be the effect or the level left. The note with it: pooled result: one value given for 4 cell lines, strains, targets or settings.
The subject of another series is UO-31. The experiment in a line: Antiproliferative activity against human UO-31 cells assessed as inhibition of cell growth at 10 uM relative to control. In kind it is functional. Further details: scale not given: the % may be the effect or the level left.
Series [7] in a line: Tmax in rat at 2 mg/kg, po by LC-MS/MS analysis. Type of series: ADME, organism-based. The note with it: in vivo.
The nature of series [8]: Half life in rat at 2 mg/kg, po by LC-MS/MS analysis. Type of series: ADME, organism-based. To be noted: in vivo.
For series [9], the target named is Polyunsaturated fatty acid 5-lipoxygenase (Homo sapiens, UniProt P09917). The experiment in a line: Inhibition of 5-LOX (unknown origin).
Series [10] in a line: Inhibition of Lipoxygenase (unknown origin). Details: species or system Homo sapiens.
Series [11] deals with HepG2. Kind of series: Cytotoxicity against human HepG2 cells assessed as reduction in cell viability by MTT assay. Type of series: functional, cell-based.
For the next series, the system named is HCT-116. Kind of series: Cytotoxicity against human HCT-116 cells assessed as reduction in cell viability by MTT assay. In kind it is functional, cell-based.
The subject of a further series is HeLa. The experiment in a line: Cytotoxicity against human HeLa cells assessed as reduction in cell viability by MTT assay. Type of series: functional, cell-based.
Series [12] relates to MCF7. The experiment in a line: Cytotoxicity against human MCF7 cells assessed as reduction in cell viability by MTT assay. In kind it is functional, cell-based.
The test system of series [13] is Mus musculus. The experiment in a line: Anticonvulsant activity in ip dosed MES induced mouse model measured after 2 hrs. In kind it is functional.
The next series deals with Cholinesterase (Equus caballus, UniProt P81908). The experiment in a line: Inhibition of equine serum BChE using butyrylthiocholine iodide as substrate measured after 15 mins by Ellman's method. A general note: DTNB colorimetry detects thiols as they appear.
Another series deals with Acetylcholinesterase (Electrophorus electricus, UniProt O42275). The experiment in a line: Inhibition of electric eel AChE using acetylthiocholine iodide as substrate incubated for 15 mins by Ellman's method.
The test system of series [14] is Mus musculus. Kind of series: Anticonvulsant activity in ip dosed MES induced mouse model measured after 4 hrs. Type of series: functional.
Series [15] relates to HepG2. The experiment in a line: Antiproliferative activity against human HepG2 cells assessed as inhibition of cell growth incubated for 48 hrs by MTT assay. The note with it: HepG2, 48 h. In kind it is functional, cell-based.
In series [16] the test system is MCF7. Kind of series: Antiproliferative activity against human MCF7 cells assessed as reduction in cell growth incubated for 48 hrs by MTT assay. Type of series: functional, cell-based. The note with it: MCF7, 48 h.
Series [17] deals with Mus musculus. Kind of series: Anticonvulsant activity in po dosed scPTZ induced Albino mouse seizure model measured after 4 hrs. Type of series: functional.
The subject of series [18] is MCF7. The experiment in a line: Cytotoxicity against human MCF7 cells assessed as inhibition of cell growth. In kind it is functional, cell-based.
A short description of series [19]: Cytotoxicity against human HEK cells. Type of series: toxicity, cell-based.
In series [20] the test system is PC-3. The experiment in a line: Cytotoxicity against human PC-3 cells. In kind it is functional, cell-based.
In series [21] the test system is PC-3. Kind of series: Cytotoxicity against human PC-3 cells assessed as inhibition of cell growth. Type of series: functional, cell-based.
For another series, the system named is 769-P. The experiment in a line: Antiproliferative activity against human 769-P cells assessed as reduction in cell growth incubated for 48 hrs by MTT assay. In kind it is functional, cell-based.
A further series has as its system HEK293. Kind of series: Antiproliferative activity against HEK293 cells assessed as inhibition of cell growth incubated for 48 hrs by CCK8 assay. In kind it is functional, cell-based. The note with it: Homo sapiens, HEK293, 48 h.
Series [22] has as its system HepG2. Kind of series: Antiproliferative activity against human HepG2 cells assessed as reduction in cell growth incubated for 24 hrs by MTT assay. In kind it is functional, cell-based. To be noted: HepG2, 24 h.
Series [23] concerns HepG2. The experiment in a line: Antiproliferative activity against human HepG2 cells assessed as reduction in cell growth incubated for 48 hrs by MTT assay. In kind it is functional, cell-based. To be noted: HepG2, 48 h.
For the next series, the system named is NCI-H1563. Kind of series: Antiproliferative activity against human NCI-H1563 cells assessed as reduction in cell growth incubated for 24 hrs by MTT assay. Type of series: functional, cell-based. To be noted: NCI-H1563, 24 h.
Series [24] deals with MCF7. The experiment in a line: Antiproliferative activity against human MCF7 cells assessed as reduction in cell viability measured after 48 hrs by MTT assay. Type of series: functional, cell-based. The note with it: MCF7, 48 h.

Chain of Cholinesterase (P81908 whole entry): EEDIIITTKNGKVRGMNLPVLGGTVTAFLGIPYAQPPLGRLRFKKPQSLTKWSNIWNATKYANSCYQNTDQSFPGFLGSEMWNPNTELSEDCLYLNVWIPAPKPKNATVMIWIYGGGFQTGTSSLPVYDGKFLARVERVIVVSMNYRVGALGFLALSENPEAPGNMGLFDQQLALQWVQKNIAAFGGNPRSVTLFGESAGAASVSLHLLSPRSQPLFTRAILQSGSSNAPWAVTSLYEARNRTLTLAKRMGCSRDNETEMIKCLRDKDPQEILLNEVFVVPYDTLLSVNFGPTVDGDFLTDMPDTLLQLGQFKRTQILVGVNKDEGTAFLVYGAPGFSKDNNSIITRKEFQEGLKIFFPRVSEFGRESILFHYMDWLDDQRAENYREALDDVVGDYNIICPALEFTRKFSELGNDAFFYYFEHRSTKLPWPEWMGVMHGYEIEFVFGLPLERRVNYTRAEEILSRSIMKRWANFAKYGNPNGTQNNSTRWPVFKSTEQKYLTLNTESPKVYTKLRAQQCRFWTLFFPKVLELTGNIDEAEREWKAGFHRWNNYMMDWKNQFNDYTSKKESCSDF
Chain of Polyunsaturated fatty acid 5-lipoxygenase (P09917 whole entry): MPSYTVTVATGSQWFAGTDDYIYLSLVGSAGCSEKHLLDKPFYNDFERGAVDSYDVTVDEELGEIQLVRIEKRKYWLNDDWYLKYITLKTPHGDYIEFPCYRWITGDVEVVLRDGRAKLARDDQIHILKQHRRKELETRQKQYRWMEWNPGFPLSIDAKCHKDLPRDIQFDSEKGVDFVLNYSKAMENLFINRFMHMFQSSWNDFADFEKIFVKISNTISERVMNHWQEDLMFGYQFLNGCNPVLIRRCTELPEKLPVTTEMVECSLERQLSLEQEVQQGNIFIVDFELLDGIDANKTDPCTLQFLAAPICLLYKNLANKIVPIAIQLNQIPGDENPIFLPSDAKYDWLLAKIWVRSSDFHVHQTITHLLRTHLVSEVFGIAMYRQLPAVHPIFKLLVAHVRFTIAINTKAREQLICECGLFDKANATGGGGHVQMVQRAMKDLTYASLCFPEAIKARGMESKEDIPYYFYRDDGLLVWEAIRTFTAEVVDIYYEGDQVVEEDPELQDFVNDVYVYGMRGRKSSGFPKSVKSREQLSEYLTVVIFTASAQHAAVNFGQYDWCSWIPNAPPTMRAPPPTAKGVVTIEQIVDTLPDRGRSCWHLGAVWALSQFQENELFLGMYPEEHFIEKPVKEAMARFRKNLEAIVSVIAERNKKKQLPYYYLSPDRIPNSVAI
Chain of DNA topoisomerase 1 (P11387 whole entry): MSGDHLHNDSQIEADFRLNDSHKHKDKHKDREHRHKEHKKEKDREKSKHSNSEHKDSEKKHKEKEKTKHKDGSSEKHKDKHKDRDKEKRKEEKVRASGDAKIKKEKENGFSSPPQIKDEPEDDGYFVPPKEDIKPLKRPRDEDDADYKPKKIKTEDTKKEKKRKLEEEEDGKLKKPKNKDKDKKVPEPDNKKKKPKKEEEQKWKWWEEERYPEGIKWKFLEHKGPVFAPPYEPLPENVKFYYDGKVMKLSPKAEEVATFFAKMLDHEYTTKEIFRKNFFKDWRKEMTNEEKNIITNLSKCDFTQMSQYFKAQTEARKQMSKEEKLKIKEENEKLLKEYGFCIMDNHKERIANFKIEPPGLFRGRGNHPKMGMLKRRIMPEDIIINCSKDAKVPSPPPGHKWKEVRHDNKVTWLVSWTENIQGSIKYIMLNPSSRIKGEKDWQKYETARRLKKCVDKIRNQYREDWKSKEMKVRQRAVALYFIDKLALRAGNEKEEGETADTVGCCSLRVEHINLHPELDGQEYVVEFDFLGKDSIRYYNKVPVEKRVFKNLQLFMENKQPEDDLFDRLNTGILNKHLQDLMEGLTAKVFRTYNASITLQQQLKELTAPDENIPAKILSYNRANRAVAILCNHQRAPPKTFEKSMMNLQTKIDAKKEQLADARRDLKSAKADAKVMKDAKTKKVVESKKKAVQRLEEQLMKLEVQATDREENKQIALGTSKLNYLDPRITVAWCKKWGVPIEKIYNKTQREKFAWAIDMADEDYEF
Chain of Acetylcholinesterase (O42275 whole entry): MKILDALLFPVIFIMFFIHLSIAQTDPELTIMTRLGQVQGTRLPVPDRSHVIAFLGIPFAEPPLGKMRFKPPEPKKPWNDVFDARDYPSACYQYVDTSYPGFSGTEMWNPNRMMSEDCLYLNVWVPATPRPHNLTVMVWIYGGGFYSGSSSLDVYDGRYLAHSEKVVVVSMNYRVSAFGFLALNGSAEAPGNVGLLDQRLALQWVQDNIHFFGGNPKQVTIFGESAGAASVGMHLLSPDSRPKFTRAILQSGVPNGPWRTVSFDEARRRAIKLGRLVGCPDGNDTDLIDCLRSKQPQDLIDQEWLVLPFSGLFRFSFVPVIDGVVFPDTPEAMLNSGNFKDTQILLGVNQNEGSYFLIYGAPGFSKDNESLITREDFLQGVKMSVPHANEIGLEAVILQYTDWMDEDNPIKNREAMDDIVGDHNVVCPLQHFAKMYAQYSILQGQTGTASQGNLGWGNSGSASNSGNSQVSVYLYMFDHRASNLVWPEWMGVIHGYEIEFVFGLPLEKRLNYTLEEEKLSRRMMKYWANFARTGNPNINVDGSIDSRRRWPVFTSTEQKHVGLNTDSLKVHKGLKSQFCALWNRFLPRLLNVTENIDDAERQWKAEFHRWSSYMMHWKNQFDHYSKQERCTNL

For orientation: IC50 means the point on the concentration scale where inhibition reaches its midpoint. On to `O=C(CNc1nc2ccccc2n1C(=O)Nc1ccccc1)NNC(=O)Nc1ccccc1`, for which the half-maximal inhibitory concentration (IC50) was 304 µM with AR-42J cell line and 64.8 µM in series [1].

Turning to `COc1ccc(NC(=O)NNC(=O)c2oc3ccccc3c2CN2CCN(c3ccccc3)CC2)cn1`, the Activity in the series with PANC-1 was 29.93%. In series [2], the IC50 was found to be 74 µM.

Take `O=C(NNc1ccnc2ccccc12)Nc1ccccc1`: the figures for the Activity in [3] and in series [4] were 10.6% and 11.7%, respectively.

Consider `Cc1ccc(C[C@@H]2C[C@H]3C(=O)N(C)C4(C[C@H](C)CC[C@H]4C(C)C)N3O2)c(OCC(=O)NNC(=O)Nc2cccc3ccccc23)c1` (some centres undefined), for which the IC50 amounted to 94.33 µM against Alpha glucosidase and 53 µM in series [1].

In the case of `O=C(Nc1ccccc1)NN1C(=O)c2c(c3c4cccc(O)c4n([C@H]4O[C@H](CO)[C@@H](O)[C@H](O)[C@H]4O)c3c3[nH]c4c(O)cccc4c23)C1=O`, the IC50 with P388 was 35 nM; against DNA topoisomerase 1, 250 nM; with MKN-45 it was 35 nM.

Regarding `Cc1ccc(S(=O)(=O)NC(=O)NNC(=O)Cn2c(C(C)C)nc3ccccc32)cc1`, the IC50 with HepG2 [5] worked out at 80.7 µM.

As to `CC(=O)Nc1nc(C)c(C(=O)NNC(=O)Nc2ccccc2)s1`, the Activity in the series with PC-3 [6] and in the series on UO-31 was 14.8% each time.

One may read the Tmax as the time from dosing to the highest level. The half-life is the time needed for the level to fall by half in the phase considered. As to `O=C1NCCN(c2ccccc2)N1`, the time to peak (Tmax) in series [7] is 1 h. The same compound had a half-life in series [8] of 198 min. This compound registered an IC50 in series [9] of 5 µM.

In the case of `CC(C(=O)O)c1cccc(Oc2ccccc2)c1` (centres undefined) [FENOPROFEN], in series [10], the 50% inhibitory concentration (IC50) came out at 60 µM.

With `Cc1c(C(=O)NNC(=O)Nc2ccc([N+](=O)[O-])cc2)nnn1Cc1nc2ccccc2[nH]1`, the IC50 with HepG2 [11] was determined as 25 µM; in the series on HCT-116 it was 32.8 µM; in the series on HeLa it was 19.1 µM; with MCF7 [12], 16.6 µM.

With `Cc1ccc(NC(=O)NN)cc1`, in the series on Mus musculus [13], the Activity is listed as 100%.

As to `CCCCCCCCCCCCCNC(=O)NNC(=O)c1ccc(C(F)(F)F)cc1`, the results for the concentration for half-maximal inhibition (IC50) against Cholinesterase and against Acetylcholinesterase were 58 µM and 27 µM, respectively.

In turn, `NNC(=O)Nc1ccccc1Cl` gave an Activity with Mus musculus [14] of 66.6%.

Turning to `O=C(NNC(=O)C(=O)Nc1ccccc1)Nc1ccccc1`, the figures for the IC50 in the series with HepG2 [15] and in the series with MCF7 [16] were 7.73 µM and 10.3 µM, respectively.

The term ED50 denotes the dose that gives a 50% effect, or the effect in half of the subjects. For the compound `O=C(CSc1nc2ccccc2n2cnnc12)NNC(=O)NC1CCCCC1`, the ED50 with Mus musculus [17] turned out to be 30 mg/kg.

`CCc1nc2cc(Cl)c(Cl)cc2n1CC(=O)NNC(=O)Nc1ccccc1`: the IC50 with MCF7 [18] was 25.2 µg/mL (≈ 62 µM); in [19] it was 127 µg/mL (≈ 312 µM); in the series on PC-3 [20], 25.2 µg/mL (≈ 62 µM); in the series with PC-3 [21] it was 25.2 µg/mL (≈ 62 µM).

As for `CCNC(=O)NNC(=O)c1ccc([N+](=O)[O-])cc1`, the IC50 with 769-P was 4.78 mM; with HEK293, 1.5 mM; with HepG2 [22], 7.06 µM; in the series with HepG2 [23] it was 1.93 mM; in the series on NCI-H1563, 336 µM.

In the case of `COc1cc(/C=C2\SC(=S)N(n3c(=O)[nH]c4ccccc4c3=O)C2=O)ccc1OC(=O)c1ccccc1`, in the series on MCF7 [24], the IC50 came out at 12 nM.
